From US20030129168A1, “Expression of proteins for treating asthma via ligand mediated activation of their encoding genes” (ARIAD Gene Therapeutics, Inc., priority 1996, published 2003)
Like-named read-outs stand apart in the source and are kept apart here. Values belong to the compound of their own block, whether it stands above or below them.

Legend:
[1] = system: ZFHD1-FKBPx3 and FKBPx3-VP16 or FKBPx3-p65; assay: Dimerizer-dependent transcriptional activation (SEAP) in transiently transfected 293 cells; type: cell-based
Method: 293 cells were grown in D-MEM (Gibco BRL) supplemented with 10% Bovine Calf Serum. Cells in 35 mm dishes (2.5×10^5 cells/dish) were transiently transfected with use of calcium phosphate precipitation (Ausubel et. al., 1994). Each dish received 375 ng pZHWTx8SVSEAP; 12ng pCGNNZFHD1-FKBPx3 and 25ng pCGNNFKBPx3-VP16 or pCGNNFKBPx3-p65. Following transfection, 2 ml fresh media was added and supplemented with FK1012 to the desired concentration. After a 24 hour incubation […] aliquot of media was removed and assayed for SEAP activity as described (Spencer et. al., 1993).
An analgous experiment was conducted using a wholly synthetic dimerizer, AP1510, in place of FK1012. Like FK1012, AP1510 is a divalent FKBP-binder and is capable of dimerizing chimeric proteins which contain FKBP domains. In this experiment, 293 cells were grown in DMEM supplemented with 10% Bovine Calf Serum. Cells in 10 cm dishes were transiently transfected by calcium phosphate precipitation (Natesan and Gilman, 1995, Mol. Cell Biol, 15, 5975-5982). Each plate received 1 μg of pZHWTx8SVSEAP reporter, 50 ng pCGNNZFHD1-FKBP3×3, 50 ng pCGNNF3p65 or pCGNNF3VP16. Following transfection, 2 ml fresh media was added and supplemented with AP1510 to the desired concentration. After 24 hrs, 100 μl of the media was assayed for SEAP activity as described (Spencer et al, 1993).

[2] = system: FKBP12-containing fusion proteins; assay: Gene regulation applications of dimerizer (SEAP or hGH reporter systems); type: cell-based; conditions: for transcription activation with stably integrated constructs: cells in which the transcription factor and reporter gene constructs are all stably integrated
Method: After overnight incubation (or longer), assay for target gene expression.
Secreted alkaline phosphatase activity can be easily measured from the supernatant of appropriately transfected cells using fluorescence-(see (10)), or chemiluminescence-(Tropix, Bedford, Mass.) based assays. Samples to be tested should first be incubated at 65° C. for 1 hour to inactivate endogenous alkaline phosphatase activity.

cells [3] = assay: Toxicity in cell culture; type: cell-based
[4] = Immunosuppressive activity
[5] = Solubility of AP1510 in culture medium; type: physicochemical; conditions: aqueous buffer, kinetic from ethanol stock; serial dilution in (aqueous) culture medium; read-out: highest concentration ensuring complete solubility
Method: In the latter case it is recommended that the highest concentration not exceed 5 uM, to ensure complete solubility in the (aqueous) medium. […]

[6] = system: myristoylated chimeric CD3/FKBP12 (MZF3E) receptor; assay: FK1012 activation of myristoylated chimeric CD3/FKBP12 (MZF3E) receptor, NFAT SEAP reporter in Jurkat T cells; type: cell-based, human
Text: In an illustrative case, this was accomplished by creating an intracellular receptor comprised of a small fragment of Src sufficient for posttranslational myristoylation (M), the cytoplasmic tail of zeta (Z; a component of the […] was also used), three consecutive FKBP12s (F3) and a flu epitope tag (E). […] The promoter of the SEAP reporter gene was constructed to be transcriptionally activated by nuclear factor of activated T cells (NFAT), which is assembled in the nucleus following TCR-signaling.
Specifically, 5 μg of the eukaryotic expression vector, pBJ5, containing a myristoylated chimeric receptor was co-transfected with 4 μg NFAT-SX. MZE, MZF1E, MZF2E and MZF3E contain 0, 1, 2, or 3 copies of FKBP12, respectively, downstream of a myristoylated CD3 cytoplasmic domain (see FIG. 2 of PCT/US94/01617). As a control, 5 μg of pBJ5 was used in a parallel transfection. After 24 hours, aliquots of each transfection containing approximately 10^5 cells were incubated with log dilutions of the drug, FK1012B, as indicated. As a positive control and to control for transfection efficiency, ionomycin (1 μm) and PMA (25 ng/ml) were added to aliquots from each transfection. After an additional 12 hour incubation, the supernatants were assayed for alkaline phosphatase activity and these activities were expressed relative to that of the positive control samples. […] Compare FIGS. 7 and 8 of PCT/US94/01617.

zeta-chain = assay: In vitro kinase assay after immunoprecipitation, Jurkat cells stably transfected with MZF3E; type: cell-based, human
MZF3Eflu and MZF3Eflag = assay: Coimmunoprecipitation of epitope-tagged chimeras in Jurkat T cells (in vivo FK1012-induced protein dimerization); type: cell-based, human
Method: The following experiments confirmed that intracellular aggregation of the MZF3E receptor is indeed induced by the FK1012. The influenza haemagglutinin epitope-tag (flu) of the MZF3E-construct was exchanged with a different epitope-tag (flag-M2). The closely related chimeras, MZF3Eflu and MZF3Eflag, were coexpressed in Jurkat T cells. Immunoprecipitation experiments using anti-Flag-antibodies coupled to agarose beads were performed after the cells were treated with FK1012A. […] In absence of FK1012A, no coimmunoprecipitation of MZF3Eflu is observed. […] This reflects the requirement for aggregation observed with both the endogenous T cell receptor and our artificial receptor MZF3E.

[7] = system: ZFHD1-FKBPx3 and FRAP-p65; assay: Rapamycin-dependent hGH expression in transfected HT1080 cells in culture; type: cell-based; conditions: HT1080 cells in cell culture
Method: (§1) Using the approach described in Example 7, constructs were prepared encoding the ZFHD1-FKBPx3 fusion protein, a second fusion protein containing the FKBP:rapaymcin binding (“FRB”) region of FRAP linked to the p6^5 activation domain, and a reporter cassette containing a gene encoding human growth hormone linked to multiple ZFHD1 binding sites. The natural product, rapamycin, forms a ternary complex with FKBP12 and FRAP. Similarly, rapamycin is capable of binding to one or more of the FKBP domains and FRAP FRB domains of the fusion proteins.

[8] = system: ZFHD1-FKBPx3 and FRAP-p65; assay: Rapamycin-dependent hGH expression in nu/nu mice implanted with transfected cells; type: in vivo; conditions: rapamycin i.v. 10-10,000 μg/kg, serum 17 hours after administration
Method: as §1
2×10^6 cells from the transfected […] culture were administered to nu/nu mice by intramuscular injection. Following cell implantation, rapamycin was administered i.v. over a range of doses (from 10-10,000 μg/kg). Serum samples were collected from the mice 17 hours after rapamycin administration. Control groups consisted of mice that received no cells but 1.0 mg/kg rapamycin (i.v.) as well as mice that received the cells but no rapamycin.

[9] = system: calcineurin-mediated TCR signaling; conditions: cited from earlier work
cells [10] = conditions: in cell culture; cited from earlier work
[11] = system: Jurkat cells stably transfected with MZF3E; assay: Protein-tyrosine phosphorylation in whole cell lysates (alpha-phosphotyrosine antibodies); type: cell-based, human; conditions: whole cell lysates at varying times after stimulation
Text: The intracellular domains of the TCR, CD3 and zeta-chains interact with cytoplasmic protein tyrosine kinases following antigen stimulation. Specific members of the Src family (lck and/or fyn) phosphorylate one or more tyrosine residues of activation motifs within these intracellular domains (tyrosine activation motif, TAM). The tyrosine kinase ZAP-70 is recruited (via its two SH2 domains) to the tyrosine phosphorylated T-cell-receptor, activated, and is likely to be involved in the further downstream activation of phospholipase C. […] Tyrosine phosphorylation after treatment of cells with either anti-CD3 MAb or FK1012 was detected using monoclonal alpha-phosphotyrosine antibodies. Whole cell lysates were analysed at varying times after stimulation. […] The pattern consisted of a major band of 70 kDa, probably ZAP-70, and minor bands of 120 kDa, 62 kDa, 55 kDa and 42 kDa.

FKBP12 [12] = molecular target: T1, FKBP12 (Homo sapiens, UniProt P62942); conditions: 2:1 stoichiometry, cited from earlier work
T1 sequence (P62942 whole entry, the tested form may be a part): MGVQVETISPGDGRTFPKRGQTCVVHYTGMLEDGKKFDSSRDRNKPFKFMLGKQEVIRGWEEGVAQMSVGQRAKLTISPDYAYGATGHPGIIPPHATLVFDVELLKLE

FKBP12 [13] = molecular target: T1, FKBP12; assay: FK1012 binding affinity and stoichiometry; conditions: linker positioned in the calcineurin binding domain of FK506
[14] = in vivo

solubility [5]: ≤ 5 µM
Compound: CCC(C)(C)C(=O)C(=O)N1CCCC[C@H]1C(=O)O[C@H](CCc1ccc(OC)c(OC)c1)c1cccc(OCC(=O)NCCNC(=O)COc2cccc([C@@H](CCc3ccc(OC)c(OC)c3)OC(=O)[C@@H]3CCCCN3C(=O)C(=O)C(C)(C)CC)c2)c1 [AP1510]
dimerizer-dependent transcriptional activation ([1]; 24 hrs): supports synthetic dimerizer-dependent transcriptional activation
transcription activation with stably integrated constructs [2]: activates transcription efficiently
concentration at which expression becomes detectable ([2]; gene regulation applications): approximately 10 nM
concentration at which expression peaks ([2]; gene regulation applications): approximately 100 nM
transcription activation compared with FK1012 ([2]; gene regulation applications): activates transcription at lower concentrations and to a higher level than PK1012
toxicity to cells (cells [3]): non-toxic to cells
immunosuppressive activity [4]: no immunosuppressive activity

Compound: CO[C@H]1C[C@@H](C)C/C(C)=C/[C@@H](CCOC(=O)NCc2ccccc2)C(=O)C[C@H](O)[C@@H](C)[C@@H](/C(C)=C/[C@@H]2CC[C@@H](O)[C@H](OC)C2)OC(=O)[C@@H]2CCCCN2C(=O)C(=O)[C@]2(O)O[C@H]1[C@@H](OC)C[C@H]2C [FK506-M]
toxicity to cells (cells [3]): nontoxic
termination of FK1012-induced signaling [6]: can be terminated by a deaggregation process

Compound: CO[C@H]1C[C@@H](C)C/C(C)=C/[C@@H](CCOC(=O)NCc2ccc(CNC(=O)OCC[C@@H]3/C=C(\C)C[C@H](C)C[C@H](OC)[C@H]4O[C@@](O)(C(=O)C(=O)N5CCCC[C@H]5C(=O)O[C@H](/C(C)=C/[C@@H]5CC[C@@H](O)[C@H](OC)C5)[C@H](C)[C@@H](O)CC3=O)[C@H](C)C[C@@H]4OC)cc2)C(=O)C[C@H](O)[C@@H](C)[C@@H](/C(C)=C/[C@@H]2CC[C@@H](O)[C@H](OC)C2)OC(=O)[C@@H]2CCCCN2C(=O)C(=O)[C@]2(O)O[C@H]1[C@@H](OC)C[C@H]2C [FK1012]
recruitment of kinase activity to the zeta-chain (zeta-chain): resulted in the recruitment of kinase activity to the zeta-chain
dimerization of FKBP monomer constructs MZF1Eflu and MZF1Eflag (MZF3Eflu and MZF3Eflag): also dimerized by FK1012A
coimmunoprecipitation of MZF3Eflu with MZF3Eflag (MZF3Eflu and MZF3Eflag; FK1012A 1 μM, anti-Flag agarose beads): is coimmunoprecipitated with MZF^3Eflag

Compound: CO[C@H]1C[C@@H]2CC[C@@H](C)[C@@](O)(O2)C(=O)C(=O)N2CCCC[C@H]2C(=O)O[C@H]([C@H](C)C[C@@H]2CC[C@@H](O)[C@H](OC)C2)CC(=O)[C@H](C)/C=C(\C)[C@@H](O)[C@@H](OC)C(=O)[C@H](C)C[C@H](C)/C=C/C=C/C=C/1C [rapamycin]
rapamycin-dependent expression of the hGH gene [7]: support rapamycin-dependent expression of the hGH gene in cell culture
expression of hGH (circulating hGH) [8]: Dose-responsive expression of hGH was observed

Compound: FK1012
inhibition of calcineurin-mediated TCR signaling / signalling pathways [9]: not inhibit calcineurin-mediated TCR signaling
concentration of peak transcriptional activation ([1]; 24 hour incubation): 100 nM
transcription activation with stably integrated constructs [2]: poor
toxic (not toxic up to) (cells [10]): > 0.1 mM
pattern of tyrosine-phosphorylated proteins [11]: A similar pattern of tyrosine-phosphorylated proteins was observed
Kd (FKBP12 [12]; first binding event, read-out: Kd(1)): 0.1 nM
Kd (FKBP12 [12]; second binding event, read-out: Kd(2)): 0.8 nM
FKBP12 binding (FKBP12 [13]): leaving FKBP12 binding unaffected
immunosuppressive activity [4]: abolishes immunosuppressive activity
EC50 ([6]; MZF3E in human (Jurkat) T cells, NFAT-driven SEAP reporter, read-out: EC50, secretion of alkaline phosphatase (SEAP)): 50 nM

Compound: hGH: human growth hormone
hGH clearance half-life [14]: less than 2 minutes
time to undetectable hGH levels [14]: ≤ 30 min
